Source: patent US8022225B2, “Triazole derivative” (Taisho Pharmaceutical Co., Ltd, priority 2004, dated 2011)

What was measured:
human Edg-1(S1P1) [1] = molecular target: T1, human Edg-1(S1P1) (Homo sapiens, UniProt P21453); experiment: Membrane system binding test: inhibition of [33P]-S1P binding to the membrane fraction of Edg-1(S1P1) gene transferred HEK-293 cells; settings: [33P]-S1P 0.1 nM
T1 construct: expressed in transfected cells; host or cells: HEK-293
Procedure, shortened: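 Membranes from HEK-293 cells transfected with Edg-1(S1P1) incubated 1 h at 30 °C with 0.1 nM [^33P]-S1P and compound at 10^−5 M (0.1% DMSO), pH 7.4 buffer with fatty acid-free BSA. Filter-bound radioactivity counted; inhibition rate calculated against no-compound binding, with untransfected-cell background subtracted.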

human Edg-1(S1P1) [2] = molecular target: T1, human Edg-1(S1P1); experiment: Cell system binding test: inhibition of [3H]-S1P binding to Edg-1(S1P1) gene transferred HEK-293 cells; settings: [3H]-S1P 10 nM
[3] = 10 μM compound, membrane fraction of Edg-1(S1P1) gene transferred HEK-293 cells, read-out: Membrane system binding test % inhibition (10 μM)
[4] = 10 μM compound, read-out: Cell system binding test % inhibition (10 μM)
[5] = test compound 10^-5 M, 1 hour at 30° C., HEK-293 membrane fraction, read-out: Edg-1(S1P1) binding inhibition rate (membrane system binding test)
[6] = test compound 10^-5 M, 1 hour, read-out: Edg-1(S1P1) binding inhibition rate (cell system binding test)

T1 sequence (P21453 whole entry): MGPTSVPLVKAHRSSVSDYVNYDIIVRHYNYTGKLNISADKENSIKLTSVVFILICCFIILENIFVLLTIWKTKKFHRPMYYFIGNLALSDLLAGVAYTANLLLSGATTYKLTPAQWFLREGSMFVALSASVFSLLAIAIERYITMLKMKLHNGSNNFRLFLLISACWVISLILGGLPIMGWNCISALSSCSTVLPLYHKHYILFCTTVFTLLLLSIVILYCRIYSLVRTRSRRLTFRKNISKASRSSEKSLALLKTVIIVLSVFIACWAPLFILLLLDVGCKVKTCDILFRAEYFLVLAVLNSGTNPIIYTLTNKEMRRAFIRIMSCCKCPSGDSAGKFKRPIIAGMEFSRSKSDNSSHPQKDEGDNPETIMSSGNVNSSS

SMILES	inhibition at 10 µM (human Edg-1(S1P1) [1]; [3]) [%]	inhibition at 10 µM (human Edg-1(S1P1) [2]; [4]) [%]	melting point [°C]	inhibition at 10 µM (human Edg-1(S1P1) [1]; [5]) [%]	inhibition at 10 µM (human Edg-1(S1P1) [2]; [6]) [%]
CCn1c(S)nnc1[C@@H](C)NS(=O)(=O)c1ccc(Cl)cc1 [Compound 90, 4-chloro-N-[(1R)-1-(4-ethyl-5-mercapto-4H-1,2,4-triazol-3-yl)ethyl]benzenesulfonamide]	48.8	60.6	169.5 to 172.5	–	–
CCn1c(OC)nnc1[C@@H](C)NS(=O)(=O)c1ccccc1 [Compound 376, [(1R)-1-(4-Ethyl-5-methoxy-4H-[1,2,4]triazol-3-yl)ethyl]benzenesulfonamide]	57.3	90.7	161 to 162	–	–
C=CCSc1nnc([C@@H](C)N(C)S(=O)(=O)c2ccc(Cl)cc2)n1CC [Compound 99, N-{(1R)-1-[5-(allylthio)-4-ethyl-4H-1,2,4-triazol-3-yl]ethyl}-4-chloro-N-methylbenzenesulfonamide]	57.4	75.8	142 to 143	–	–
CCn1c([C@@H](C)NS(=O)(=O)c2ccc(Cl)cc2)nnc1S(C)(=O)=O [Compound 182, 4-Chloro-N-{(1R)-1-[4-ethyl-5-(methylsulfonyl)-4H-1,2,4-triazol-3-yl]ethyl}benzenesulfonamide]	–	53.7	129 to 130	–	–
CCn1c(SCC2CCOC2)nnc1[C@@H](C)NS(=O)(=O)c1ccc(Cl)cc1 (stereo partly shown) [Compound 13]	43.6	80.8	–	–	–
CCn1c(OC)nnc1[C@H](C)NS(=O)(=O)c1cccc(Cl)c1 [Compound 193]	64.4	108	–	–	–
CCn1c(OCC(F)(F)F)nnc1[C@@H](C)NS(=O)(=O)c1ccc(F)c(Cl)c1 [Compound 488]	–	–	–	91.4	102
CCCOc1nnc([C@@H](C)NS(=O)(=O)c2ccc(C)cc2)n1CC [Compound 196]	88.5	106	–	–	–
C=CCSc1nnc([C@@H](Cc2ccccc2)NS(=O)(=O)c2ccc(Cl)cc2)n1C(C)C [Compound 143]	88.7	96	–	–	–
CCn1c(SCC2(c3ccc(Cl)cc3)CC2)nnc1[C@@H](C)NS(=O)(=O)c1ccc(Cl)cc1 [Compound 12]	85.9	87.8	–	–	–
CCOc1nnc([C@@H](C)NS(=O)(=O)c2ccc(Br)c(C)c2)n1CC [Compound 428]	99.2	101	–	–	–
CCn1c(SC2CCCCC2)nnc1[C@@H](C)NS(=O)(=O)c1ccc(Cl)cc1 [Compound 8]	85.6	83.9	–	–	–
COc1nnc([C@@H](C)NS(=O)(=O)c2ccc(Cl)cc2)n1C(C)C [Compound 542]	–	–	–	92.3	99.9
CCn1c(OC)nnc1[C@@H](C)NS(=O)(=O)c1cc(Br)ccc1Br [Compound 303]	56.1	97.7	–	–	–
CCOc1nnc([C@@H](C)NS(=O)(=O)c2cccc(Br)c2)n1CC [Compound 408]	84.9	88.5	–	–	–
CCn1c(OC)nnc1[C@@H](C)NS(=O)(=O)c1cc2ccccc2o1 [Compound 427]	67	97.5	–	–	–
CCn1c(OC(C)C)nnc1[C@@H](C)NS(=O)(=O)c1ccc(Cl)c(Cl)c1 [Compound 453]	–	–	–	97.1	89.4
CCOc1nnc([C@@H](C)NS(=O)(=O)c2cccc(Cl)c2)n1CC [Compound 445]	81.6	93	–	–	–
CCn1c(SC2CCC2)nnc1[C@@H](C)NS(=O)(=O)c1ccc(Cl)cc1 [Compound 55]	104	94.3	–	–	–
CCn1c(OC)nnc1[C@@H](C)NS(=O)(=O)c1cc(F)c(F)c(F)c1 [Compound 313]	93.2	100	–	–	–
CCn1c(OCC(F)(F)F)nnc1[C@@H](C)NS(=O)(=O)c1cc(F)cc(F)c1 [Compound 501]	–	–	–	55.4	102

SMILES	inhibition at 10 µM (human Edg-1(S1P1) [1]; [3]) [%]	inhibition at 10 µM (human Edg-1(S1P1) [2]; [4]) [%]	melting point [°C]	inhibition at 10 µM (human Edg-1(S1P1) [1]; [5]) [%]	inhibition at 10 µM (human Edg-1(S1P1) [2]; [6]) [%]
CCn1c(SCc2ccccc2Cl)nnc1[C@@H](C)NS(=O)(=O)c1ccc(Cl)cc1 [Compound 42]	98.8	85.4	–	–	–
CCn1c(SCC=C(C)C)nnc1[C@@H](C)NS(=O)(=O)c1ccc(Cl)cc1 [Compound 28]	82.8	93.1	–	–	–
CCn1c(SCC2CCCN(C)C2)nnc1[C@@H](C)NS(=O)(=O)c1ccc(Cl)cc1 (stereo partly shown) [Compound 65]	83.1	83.3	–	–	–
CCn1c(OCC(F)(F)F)nnc1[C@@H](C)NS(=O)(=O)c1ccc(F)c(F)c1 [Compound 496]	–	–	–	75.7	103
CCn1c(OCC(F)(F)F)nnc1[C@@H](C)NS(=O)(=O)c1ccc(C)c(F)c1 [Compound 494]	–	–	–	87.1	102
CCn1c(OCC(F)(F)F)nnc1[C@@H](C)NS(=O)(=O)c1cccc(C)c1 [Compound 505]	–	–	–	74.4	103
CCn1c(SCCN2CCCC2=O)nnc1[C@@H](C)NS(=O)(=O)c1ccc(Cl)cc1 [Compound 78]	96.5	83	–	–	–
CCn1c(SCCOC)nnc1[C@@H](C)NS(=O)(=O)c1ccc(Cl)cc1 [Compound 16]	64.4	92.1	–	–	–
CCn1c(OC)nnc1[C@@H](C)NS(=O)(=O)c1cccc(C(C)=O)c1 [Compound 355]	62.8	101	–	–	–
CCn1c(OC)nnc1[C@@H](C)NS(C)(=O)=O [Compound 227]	52	92.6	–	–	–
CCn1c(SCCCC(C)=O)nnc1[C@@H](C)NS(=O)(=O)c1ccc(Cl)cc1 [Compound 87]	84.7	82.7	–	–	–
CCn1c(OCC(F)(F)F)nnc1[C@@H](C)NS(=O)(=O)c1ccc(Br)c(C(F)(F)F)c1 [Compound 513]	–	–	–	55.2	98.8
CCn1c(OC)nnc1[C@@H](Cc1ccccc1)NS(=O)(=O)c1ccc(Cl)cc1 [Compound 390]	99.8	101	–	–	–
CCn1c(OC)nnc1[C@@H](C)NS(=O)(=O)c1ccc(C)cc1OC [Compound 264]	42.7	95.8	–	–	–
CCn1c(OC)nnc1[C@@H](C)NS(=O)(=O)c1cc(Cl)c(Cl)s1 [Compound 220]	98	97.2	–	–	–
CCn1c(OCC2CCCCC2)nnc1[C@@H](C)NS(=O)(=O)c1ccc(Cl)cc1 [Compound 378]	87.2	103	–	–	–
CCn1c(OC(C)C)nnc1[C@@H](C)NS(=O)(=O)c1ccc(F)c(F)c1 [Compound 465]	–	–	–	88	97.9
CCn1c(OCC(F)(F)F)nnc1[C@@H](C)NS(=O)(=O)c1ccc(Br)c(F)c1 [Compound 487]	–	–	–	90.4	99.6
CCn1c(OCC(F)(F)F)nnc1[C@@H](C)NS(=O)(=O)c1ccc(F)cc1 [Compound 512]	–	–	–	71.5	105
CCn1c(OCC(F)(F)F)nnc1[C@@H](C)NS(=O)(=O)c1ccc(Br)cc1 [Compound 492]	–	–	–	87.9	104
